This passage reports IC50 results from US20210198277A1, “AMINE-SUBSTITUTED ARYL OR HETEROARYL COMPOUNDS” (Epizyme, Inc., priority 2016, published 2021).

The structures appear in SMILES notation.

The target of this assay is T1, human EHMT2 913-1193 (Homo sapiens, UniProt Q96KQ7).
T1 construct: recombinant purified human EHMT2 913-1193, Viva; purchased Viva
T1 sequence (Q96KQ7 913-1193): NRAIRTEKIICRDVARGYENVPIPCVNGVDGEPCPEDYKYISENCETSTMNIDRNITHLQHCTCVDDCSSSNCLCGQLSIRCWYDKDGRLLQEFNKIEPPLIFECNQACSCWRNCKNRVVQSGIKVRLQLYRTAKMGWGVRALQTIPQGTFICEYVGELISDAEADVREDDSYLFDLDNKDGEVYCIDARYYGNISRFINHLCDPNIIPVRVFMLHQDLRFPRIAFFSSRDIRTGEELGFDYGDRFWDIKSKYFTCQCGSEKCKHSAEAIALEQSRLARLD
The experiment in a line: EHMT2 enzyme assay on histone peptide substrate (EHMT2 PEP). It counts as biochemical. The following applies: Table III; read-out: EHMT2 PEP (IC50 μM). The essentials: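 10-pt 3-fold series, 50 μM top final, 2% DMSO; 30 min preinc w/ 0.031 nM enzyme; pH 7.5 Bicine/TCEP buffer; ^3H-SAM + biotin-histone peptide, 60 min RT; SAM quench; streptavidin Flashplate capture, TopCount.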

Turning to `CNc1ccnc(Nc2ccc(OC)c(OCC3CCCN3C)c2)n1` (stereo not drawn) [Compound 289, N^2-(4-methoxy-3-((1-methylpyrrolidin-2-yl)methoxy)phenyl)-N^4-methylpyrimidine-2,4-diamine], the IC50 was 0.1 to 1 µM.

Turning to `CNc1nc(C)cc(Nc2cc(OCCCN3CCCC3)c(OC)cn2)n1` [Compound 306, N^4-(5-methoxy-4-(3-(pyrrolidin-1-yl)propoxy)pyridin-2-yl)-N^2,6-dimethylpyrimidine-2,4-diamine], the IC50 is 1 to 10 µM.

Regarding `CNc1cc(C)nc(Nc2ccc(OC)c(OCC3CN(CC4CC4)C3)c2)n1` [Compound 445, N^2-(3-((1-(cyclopropylmethyl)azetidin-3-yl)methoxy)-4-methoxyphenyl)-N^4,6-dimethylpyrimidine-2,4-diamine], the 50% inhibitory concentration (IC50) is 0.1 to 1 µM.

Regarding `CNc1nc(C2CCN(C)CC2)c2cc(OC)c(OCCCN3CCCC3)cc2n1` [Compound 270], the 50% inhibitory concentration (IC50) was less than 0.1 µM.

`CNc1cc(C)nc(Nc2ccc(OC)c(OCC3CCN(C4CCC4)C3)c2)n1` (stereo not drawn) [Compound 446, N^2-(3-((1-cyclobutylpyrrolidin-3-yl)methoxy)-4-methoxyphenyl)-N^4,6-dimethylpyrimidine-2,4-diamine]: the 50% inhibitory concentration (IC50) is less than 0.1 µM.

Consider `CNc1ccnc(Nc2ccc(C3CC3)c(OCCCN3CCCC3)c2)n1` [Compound 314, N^2-(4-cyclopropyl-3-(3-(pyrrolidin-1-yl)propoxy)phenyl)-N^4-methylpyrimidine-2,4-diamine], for which the IC50 fell in the range of 0.1 to 1 µM.

With `CNc1ccnc(Nc2ccc(OC)c(OCCCN3CCC(C#N)C3)c2)n1` (stereo not drawn) [Compound 287, 1-(3-(2-methoxy-5-((4-(methylamino)pyrimidin-2-yl)amino)phenoxy)propyl)pyrrolidine-3-carbonitrile], the concentration for half-maximal inhibition (IC50) was greater than 10 µM.

Take `CNc1ccnc(Nc2ccc(OC)c(OC[C@@H]3CN(C)C[C@H]3C)c2)n1` (single isomer, unassigned) [Compound 438]: the IC50 was greater than 10 µM.

Take `CNc1ccnc(Nc2cccc(N3CCC(N)C3)c2)n1` (stereo not drawn) [Compound 297]: the IC50 was in the range of 1 to 10 µM.

For the compound `CNc1ccnc(Nc2cccc3oc(CCN(C)C)nc23)n1` [Compound 295], the IC50 was greater than 10 µM.

Consider `CNc1ccnc(Nc2cccc(COCCN3CCCC3)n2)c1` [Compound 267, N^4-methyl-N^2-(6-((2-(pyrrolidin-1-yl)ethoxy)methyl)pyridin-2-yl)pyridine-2,4-diamine], for which the IC50 is greater than 10 µM.

Turning to `CNc1ccnc(Nc2ccc(OC)c(OCCCN3CC[C@H](F)C3)c2)n1` [Compound 271], the IC50 fell in the range of 1 to 10 µM.

For the compound `CCNC(=O)c1cc(Nc2nccc(NC)n2)ccn1` [Compound 291, N-ethyl-4-((4-(methylamino)pyrimidin-2-yl)amino)picolinamide], the IC50 was greater than 10 µM.

`CNc1ccnc(Nc2cccc(C(C)OCCN3CCCC3)c2)n1` (stereo not drawn) [Compound 279, N^4-methyl-N^2-(3-(1-(2-(pyrrolidin-1-yl)ethoxy)ethyl)phenyl) pyrimidine-2,4-diamine]: the IC50 was greater than 10 µM.

As to `CNc1cc(C)nc(Nc2ccc(OC)c(O[C@H]3C[C@@H](CN(C)C)C3)c2)n1` [Compound 318, N^2-(3-((1s,3s)-3-((dimethylamino)methyl)cyclobutoxy)-4-methoxyphenyl)-N^4,6-dimethylpyrimidine-2,4-diamine], the half-inhibitory concentration (IC50) is greater than 10 µM.

On to `CNc1cc(C)nc(Nc2ccc(OC)c(OCCCOC)c2)n1` [Compound 312, N^2-(4-methoxy-3-(3-methoxypropoxy)phenyl)-N^4,6-dimethylpyrimidine-2,4-diamine], for which the IC50 is greater than 10 µM.

Consider `CNc1cc(C)nc(Nc2ccc(OC)c(OCC3CNC3)c2)n1` [Compound 437, N^2-(3-(azetidin-3-ylmethoxy)-4-methoxyphenyl)-N^4,6-dimethylpyrimidine-2,4-diamine], for which the concentration for half-maximal inhibition (IC50) was 0.1 to 1 µM.

For `CNc1ccnc(Nc2ccc(OC)c(OCCCN3CC(OC)C3)c2)n1` [Compound 425, N^2-(4-methoxy-3-(3-(3-methoxyazetidin-1-yl)propoxy)phenyl)-N^4-methylpyrimidine-2,4-diamine], the half-maximal inhibitory concentration (IC50) is 0.1 to 1 µM.

In the case of `CCN(CC)CCCOc1cc(Nc2nccc(NC)n2)ccc1OC` [Compound 280, N^2-(3-(3-(diethylamino)propoxy)-4-methoxyphenyl)-N^4-methylpyrimidine-2,4-diamine], the 50% inhibitory concentration (IC50) was 1 to 10 µM.

Take `COc1cnc(Nc2cnc3ccccn23)cc1OCCCN1CCCC1` [Compound 321, N-(5-methoxy-4-(3-(pyrrolidin-1-yl)propoxy)pyridin-2-yl)imidazo[1,2-a]pyridin-3-amine]: the IC50 was in the range of 1 to 10 µM.

For the compound `COc1cnc(Nc2nccc3[nH]ccc23)cc1OCCCN1CCCC1` [Compound 304], the half-maximal inhibitory concentration (IC50) was less than 0.1 µM.

`CNc1cc(N2CCCC2)nc(Nc2ccc(OC)c(OCCCN3CCCC3)c2)n1` [Compound 450, N^2-(4-methoxy-3-(3-(pyrrolidin-1-yl)propoxy)phenyl)-N^4-methyl-6-(pyrrolidin-1-yl)pyrimidine-2,4-diamine]: the half-inhibitory concentration (IC50) fell in the range of 1 to 10 µM.

`CCN1CC(COc2cc(Nc3nc(C)cc(NC)n3)ccc2OC)C1` [Compound 444]: the IC50 is less than 0.1 µM.

As for `CNc1ccnc(Nc2ccc(OC)c(OCCOC3CCCC3)c2)n1` [Compound 440, N^2-(3-(2-(cyclopentyloxy)ethoxy)-4-methoxyphenyl)-N^4-methylpyrimidine-2,4-diamine], the half-inhibitory concentration (IC50) was greater than 10 µM.

Consider `CNc1ccnc(Nc2ccc(OC)c(OCCCN3CCC(O)C3)c2)n1` (stereo not drawn) [Compound 286, 1-(3-(2-methoxy-5-((4-(methylamino)pyrimidin-2-yl)amino)phenoxy)propyl)pyrrolidin-3-ol], for which the half-inhibitory concentration (IC50) was less than 0.1 µM.

As for `CNc1ccnc(Nc2cccc(OCC(F)(F)CN3CCCC3)c2)n1` [Compound 277, N^2-(3-(2,2-difluoro-3-(pyrrolidin-1-yl)propoxy)phenyl)-N^4-methylpyrimidine-2,4-diamine], the half-inhibitory concentration (IC50) is greater than 10 µM.

Take `CNc1ccnc(Nc2ccc(OC)c(OCCCN(C)CC3CC3)c2)n1` [Compound 424, N^2-(3-(3-((cyclopropylmethyl)(methyl)amino)propoxy)-4-methoxyphenyl)-N^4-methylpyrimidine-2,4-diamine]: the 50% inhibitory concentration (IC50) is 1 to 10 µM.

As to `CNc1cc(C)nc(Nc2ccc(OC)c(OC[C@H]3C[C@@H](N(C)C)C3)c2)n1` [Compound 316], the half-inhibitory concentration (IC50) lay in the range of 1 to 10 µM.

As for `CNc1ccnc(Nc2ccc(OC)c(OCc3noc(C4CC4)n3)c2)n1` [Compound 433, N^2-(3-((5-cyclopropyl-1,2,4-oxadiazol-3-yl)methoxy)-4-methoxyphenyl)-N^4-methylpyrimidine-2,4-diamine], the IC50 was greater than 10 µM.

As for `CCOc1ccc(Nc2nc(C)cc(NC)n2)cc1OCCCN1CCCC1` [Compound 432, N^2-(4-ethoxy-3-(3-(pyrrolidin-1-yl)propoxy)phenyl)-N^4,6-dimethylpyrimidine-2,4-diamine], the IC50 was greater than 10 µM.

Consider `COc1ccc(Nc2nccc(NCC3CC(C)(C)NC(C)(C)C3)n2)cc1OCCCN1CCCC1` [Compound 278], for which the IC50 was less than 0.1 µM.

Turning to `CNc1ccnc(Nc2ccc(OC)c(OCCCN3CCC3C)c2)n1` (stereo not drawn) [Compound 429, N^2-(4-methoxy-3-(3-(2-methylazetidin-1-yl)propoxy)phenyl)-N^4-methylpyrimidine-2,4-diamine], the IC50 was 0.1 to 1 µM.

On to `CNc1cc(C)nc(Nc2ccc(OC)c(OCCOC)c2)n1` [Compound 311, N^2-(4-methoxy-3-(2-methoxyethoxy)phenyl)-N^4,6-dimethylpyrimidine-2,4-diamine], for which the IC50 is greater than 10 µM.

As for `CNc1ccnc(Nc2ccc(OC)c(OCCCN3CC4CC4C3)c2)n1` (stereo not drawn) [Compound 298, N^2-(3-(3-(3-azabicyclo[3.1.0]hexan-3-yl)propoxy)-4-methoxyphenyl)-N^4-methylpyrimidine-2,4-diamine], the concentration for half-maximal inhibition (IC50) is less than 0.1 µM.

As for `CNc1cc(C)nc(Nc2cc(OCCCN3CCCC3)c(OC)cn2)c1` [Compound 307, N^2-(5-methoxy-4-(3-(pyrrolidin-1-yl)propoxy)pyridin-2-yl)-N^4,6-dimethylpyridine-2,4-diamine], the IC50 is less than 0.1 µM.

On to `COc1ccc(Nc2nc(C)cc(NCC3CCOCC3)n2)cc1OCC1CCN(C)C1` (stereo not drawn) [Compound 451, N^2-(4-methoxy-3-((1-methylpyrrolidin-3-yl)methoxy)phenyl)-6-methyl-N^4-((tetrahydro-2H-pyran-4-yl)methyl)pyrimidine-2,4-diamine], for which the 50% inhibitory concentration (IC50) fell in the range of 0.1 to 1 µM.

`CNc1ccnc(Nc2ccc(OC)c(OCc3cc(C4CC4)on3)c2)n1` [Compound 426, N^2-(3-((5-cyclopropylisoxazol-3-yl)methoxy)-4-methoxyphenyl)-N^4-methylpyrimidine-2,4-diamine]: the half-inhibitory concentration (IC50) was greater than 10 µM.

Take `CNc1ccnc(Nc2ccc(OC)c(OCCCN3CCC(C)C3)c2)n1` (stereo not drawn) [Compound 293, N^2-(4-methoxy-3-(3-(3-methylpyrrolidin-1-yl)propoxy)phenyl)-N^4-methylpyrimidine-2,4-diamine]: the IC50 lay within 1 to 10 µM.

Turning to `CNc1ccnc(Nc2ccc(OC)c(OCc3cn(C4CC4)nn3)c2)n1` [Compound 434, N^2-(3-((1-cyclopropyl-1H-1,2,3-triazol-4-yl)methoxy)-4-methoxyphenyl)-N^4-methylpyrimidine-2,4-diamine], the IC50 is greater than 10 µM.

In general, IC50 refers to the concentration that inhibits the measured activity by half.
